pKd: −log10 of the molar value. Peptide text beside a SMILES is read from it.
Legend:
Test in all cases: Fluorescence polarization SH3 domain-PRP binding
[1] = target: T1, ITSN1-4 SH3 domain (aa 1070-1138) (Homo sapiens, UniProt Q15811); settings: FP, 0.2 µM fluorescein-labeled peptide, SH3 domain 0-200 µM, Tris/HCl pH 7.5, 25 °C, quadratic fit
T1 construct: 1070-1138; GST (N); made in house; host or cells: Escherichia coli CodonPlus, Rosetta, BL21(DE3)
T1 sequence (Q15811 1070-1138): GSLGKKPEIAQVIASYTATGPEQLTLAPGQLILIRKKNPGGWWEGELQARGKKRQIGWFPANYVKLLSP
Description: (§1) The interaction between fluorescein-labeled proline-rich peptides (0.2 µM) and increasing concentrations of SH3 domains (ranging from 0 to 200 µM) was measured in a buffer (containing 30 mM Tris/HCl (pH 7.5), 5 mM MgCl2, and 3 mM DTT at 25 °C) in a total volume of 200 µL using a Fluoromax 4 fluorimeter in polarization mode and a quartz glass fluorescence cuvette (Hellma Ultra-Micro Cuvette 105.250-QS, Thermo Fisher Scientific, Waltham, MA USA). Excitation was performed at 470 nm and emission was measured at 560 nm. Dissociation constants (Kd) were determined by fitting the concentration-dependent binding curve to a quadratic ligand binding equation.
(§2) Fluorescence polarization measurements were performed to determine the binding affinities of SH3 domain–PRP interaction pairs from the dot blot analysis. SH3 proteins were titrated at increasing concentrations against fluorescent PRPs, which were kept at a constant concentration of 0.2 µM. GRB2-2^W193K, which is defective in the binding of PRPs such as RP1, was used as a negative control as previously described. […] The resulting data (Figure S6) allowed the evaluation of equilibrium dissociation constants (Kd) for 45 interactions between the SH3 domains and the PRPs (Figure 2B; Table S6).
(§3) Figure S6. Interactions of the SH3 domains with fluorescent PRPs measured by fluorescence polarization.
(§4) Fluorescent peptides (0.2 µM) were titrated with increasing concentrations of the corresponding SH3 domains.
(§5) GRB2-2W193K, defective in the binding of PRPs such as RP1, was used as a negative control as previously described. The x-axis represents SH3 domain concentrations as GST fusion proteins in µM, while the y-axis represents fluorescence polarization. The equilibrium dissociation constants (Kd) for the respective measurements were determined by fitting the titration curves to a quadratic ligand-binding equation (solid lines). All Kd values are […]
(§6) Error bars are derived from the fitting errors.

[2] = target: T2, ITSN1-5 SH3 domain (aa 1155-1214) (Homo sapiens, UniProt Q15811); settings: FP, 0.2 µM fluorescein-labeled peptide, SH3 domain 0-200 µM, Tris/HCl pH 7.5, 25 °C, quadratic fit
T2 construct: 1155-1214; GST (N); made in house; host or cells: Escherichia coli CodonPlus, Rosetta, BL21(DE3)
T2 sequence (Q15811 1155-1214): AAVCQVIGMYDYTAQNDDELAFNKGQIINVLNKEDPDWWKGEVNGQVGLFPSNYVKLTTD
Description: as §1, §2, §3, §4, §5, §6

[3] = target: T3, NCK1-1 SH3 domain (aa 2-61) (Homo sapiens, UniProt P16333); settings: FP, 0.2 µM fluorescein-labeled peptide, SH3 domain 0-200 µM, Tris/HCl pH 7.5, 25 °C, quadratic fit, read-out: Kd
T3 construct: 2-61; GST (N); made in house; host or cells: Escherichia coli CodonPlus, Rosetta, BL21(DE3)
Description: as §1, §2, §3, §4, §5, §6

[4] = target: T4, NCK1-2 SH3 domain (aa 106-165) (Homo sapiens, UniProt P16333); settings: FP, 0.2 µM fluorescein-labeled peptide, SH3 domain 0-200 µM, Tris/HCl pH 7.5, 25 °C, quadratic fit, read-out: Kd
T4 construct: 106-165; GST (N); made in house; host or cells: Escherichia coli CodonPlus, Rosetta, BL21(DE3)
Description: as §1, §2, §3, §4, §5, §6

[5] = target: T5, NCK1-3 SH3 domain (aa 190–252) (Homo sapiens, UniProt P16333); settings: NCK1-3 (wt); FP, 0.2 µM fluorescein-labeled peptide, SH3 domain 0-200 µM, Tris/HCl pH 7.5, 25 °C, quadratic fit; read-out: Kd
T5 construct: 190–252; GST (N); made in house; host or cells: Escherichia coli CodonPlus, Rosetta, BL21(DE3)
Description: as §1, §2, §3, §4, §5, §6

NPHP1 SH3 domain = target: T6, NPHP1 SH3 domain (Homo sapiens, UniProt O15259); settings: FP, 0.2 µM fluorescein-labeled peptide, SH3 domain 0-200 µM, Tris/HCl pH 7.5, 25 °C, quadratic fit
T6 construct: GST (N); made in house; host or cells: Escherichia coli CodonPlus, Rosetta, BL21(DE3)
T6 sequence (O15259 152-212 limits assumed): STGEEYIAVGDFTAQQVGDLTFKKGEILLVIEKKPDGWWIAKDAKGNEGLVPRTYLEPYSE
Description: as §1, §2, §3, §4, §5, §6

[6] = target: T7, RASA1 SH3 domain (aa 279–341) (Homo sapiens, UniProt P20936); settings: FP, 0.2 µM fluorescein-labeled peptide, SH3 domain 0-200 µM, Tris/HCl pH 7.5, 25 °C, quadratic fit
T7 construct: 279–341; GST (N); made in house; host or cells: Escherichia coli CodonPlus, Rosetta, BL21(DE3)
T7 sequence (P20936 279-341): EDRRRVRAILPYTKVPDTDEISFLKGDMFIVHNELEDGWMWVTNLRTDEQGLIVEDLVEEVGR
Description: as §1, §2, §3, §4, §5, §6

[7] = target: T8, RIMBP3B-1 SH3 domain (aa 832-899) (Homo sapiens, UniProt A6NNM3); settings: FP, 0.2 µM fluorescein-labeled peptide, SH3 domain 0-200 µM, Tris/HCl pH 7.5, 25 °C, quadratic fit
T8 construct: 832-899; GST (N); made in house; host or cells: Escherichia coli CodonPlus, Rosetta, BL21(DE3)
T8 sequence (A6NNM3 832-899): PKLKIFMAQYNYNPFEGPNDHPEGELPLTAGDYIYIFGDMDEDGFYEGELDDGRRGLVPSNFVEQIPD
Description: as §1, §2, §3, §4, §5, §6

[8] = target: T9, SH3GLB1 SH3 domain (aa 305-365) (Homo sapiens, UniProt Q9Y371); settings: FP, 0.2 µM fluorescein-labeled peptide, SH3 domain 0-200 µM, Tris/HCl pH 7.5, 25 °C, quadratic fit
T9 construct: 305-365; GST (N); made in house; host or cells: Escherichia coli CodonPlus, Rosetta, BL21(DE3)
T9 sequence (Q9Y371 305-365): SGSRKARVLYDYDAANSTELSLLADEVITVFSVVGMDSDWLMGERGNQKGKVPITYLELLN
Description: as §1, §2, §3, §4, §5, §6

[9] = target: T10, SH3PXD2A-1 SH3 domain (aa 166-225) (Homo sapiens, UniProt Q5TCZ1); settings: FP, 0.2 µM fluorescein-labeled peptide, SH3 domain 0-200 µM, Tris/HCl pH 7.5, 25 °C, quadratic fit
T10 construct: 166-225; GST (N); made in house; host or cells: Escherichia coli CodonPlus, Rosetta, BL21(DE3)
T10 sequence (Q5TCZ1 166-225): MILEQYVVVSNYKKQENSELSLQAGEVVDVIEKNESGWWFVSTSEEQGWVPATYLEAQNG
Description: as §1, §2, §3, §4, §5, §6

[10] = target: T11, SORBS1-1 SH3 domain (aa 793-852) (Homo sapiens, UniProt Q9BX66); settings: FP, 0.2 µM fluorescein-labeled peptide, SH3 domain 0-200 µM, Tris/HCl pH 7.5, 25 °C, quadratic fit
T11 construct: 793-852; GST (N); made in house; host or cells: Escherichia coli CodonPlus, Rosetta, BL21(DE3)
T11 sequence (Q9BX66 793-852): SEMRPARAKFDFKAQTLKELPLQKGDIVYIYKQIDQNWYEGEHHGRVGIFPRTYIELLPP
Description: as §1, §2, §3, §4, §5, §6

[11] = target: T12, SRC SH3 domain (aa 77-140) (Homo sapiens, UniProt P12931); settings: FP, 0.2 µM fluorescein-labeled peptide, SH3 domain 0-200 µM, Tris/HCl pH 7.5, 25 °C, quadratic fit
T12 construct: 77-140; GST (N); made in house; host or cells: Escherichia coli CodonPlus, Rosetta, BL21(DE3)
Description: as §1, §2, §3, §4, §5, §6

T12 sequence (P12931 77-140 limits assumed): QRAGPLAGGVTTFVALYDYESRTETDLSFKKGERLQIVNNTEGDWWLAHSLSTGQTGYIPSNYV

Row | Compound | pKd [1] | pKd [2] | pKd [3] | pKd [4] | pKd [5] | pKd (NPHP1 SH3 domain) | pKd [6] | pKd [7] | pKd [8] | pKd [9] | pKd [10] | pKd [11]
1 | CC[C@H](C)[C@H](N)C(=O)N[C@@H](CO)C(=O)N[C@@H](CC(=O)O)C(=O)N1CCC[C@H]1C(=O)N1CCC[C@H]1C(=O)N[C@@H](CCC(=O)O)C(=O)N[C@@H](CO)C(=O)N1CCC[C@H]1C(=O)N1CCC[C@H]1C(=O)N[C@@H](CC(C)C)C(=O)N[C@@H](CC(C)C)C(=O)N1CCC[C@H]1C(=O)N1CCC[C@H]1C(=O)N[C@@H](CCCNC(=N)N)C(=O)N[C@@H](CCC(=O)O)C(=O)N1CCC[C@H]1C(=O)N[C@H](C(=O)N[C@@H](CCCNC(=N)N)C(=O)N[C@H](C(=O)N1CCC[C@H]1C(=O)N[C@@H](CC(=O)O)C(=O)N[C@H](C(=O)O)C(C)C)[C@@H](C)O)C(C)C [Peptide P5] (H-ISDPPESPPLLPPREPVRTPDV-OH) | < 3.70 | < 3.70 | < 3.70 | < 3.70 | < 3.70 | < 3.70 | < 3.70 | < 3.70 | < 3.70 | < 3.70 | < 3.70 | < 3.70
2 | CC(C)[C@H](NC(=O)[C@@H]1CCCN1C(=O)[C@@H]1CCCN1C(=O)[C@H](C)NC(=O)[C@H](CCC(=O)O)NC(=O)[C@H](CS)NC(=O)[C@@H](N)CCCNC(=N)N)C(=O)N1CCC[C@H]1C(=O)N1CCC[C@H]1C(=O)N[C@@H](CCCNC(=N)N)C(=O)N[C@@H](CCCNC(=N)N)C(=O)N[C@@H](CCC(=O)O)C(=O)N[C@@H](CCCNC(=N)N)C(=O)NCC(=O)O [RP2, reference compound] (H-RCEAPPVPPRRERG-OH) | < 3.70 | 4.64 | < 3.70 | 6.00 | 5.60 | < 3.70 | < 3.70 | < 3.70 | < 3.70 | 4.68 | < 3.70 | < 3.70
3 | CC(C)C[C@H](NC(=O)[C@@H](NC(=O)[C@@H](N)C(C)C)[C@@H](C)O)C(=O)N1CCC[C@H]1C(=O)N[C@@H](Cc1c[nH]cn1)C(=O)NCC(=O)N1CCC[C@H]1C(=O)N[C@@H](CCCNC(=N)N)C(=O)N[C@@H](CO)C(=O)N[C@@H](C)C(=O)O [Peptide P2] (H-VTLPHGPRSA-OH) | < 3.70 | < 3.70 | < 3.70 | < 3.70 | < 3.70 | < 3.70 | < 3.70 | 4.68 | < 3.70 | 4.36 | < 3.70 | < 3.70
